Where a SMILES comes first, the peptide text is derived from it. [ ]: non-standard residue; d: D form. The star is where a group is joined. 5FAM = O=C1OC2(c3ccc(O)cc3Oc3cc(O)ccc32)c2ccc(C(=O)*)cc21
How the values were obtained:
[1] = test system: CAPNS1 KO MDA-MB-231 cells; experiment: Single-cell migration on collagen (IncuCyte video microscopy, DiPer MSD analysis), CAPNS1 KO cells; format: cell-based, human
Experimental: (§1) For the migration assay, plates were coated with 15 µg/mL rat tail collagen type 1 (BD-Biosciences, Franklin Lakes, NJ, USA). Cells were seeded at 1000 cells per well. Plates were imaged using the IncuCyte Live-Cell Analysis System (Essen Bioscience, Ann Arbor, MI, USA) every 10 min for 24 h. Cell migration was tracked using the “Track Object” program in Metamorph 7.8 (Molecular Devices, LLC., San Jose, CA, USA). The resulting coordinates were analyzed with the DiPer program to measure speed and directional persistence of migration. Experiments were conducted in triplicate, each with at least 20 cells per genotype. The results are presented as the mean ± standard error of the mean. […]
(§2) Migration propensity of calpain-deficient cells was measured by IncuCyte video microscopy of single-cell trajectories on a collagen substrate, which were then analyzed according to an established protocol using three measures of migration: (1) speed of migration (a raw value of displacement from frame to frame); (2) directionality (a ratio of cell displacement to path); and (3) mean square displacement (MSD, how much area a migrating cell has covered).
(§3) To evaluate the effect of this calpain inhibitor, we first measured MDA-MB-231 cancer cell migration in the presence of 4 µM mB27 (Figure 5a,b). […] A thorough quantification and statistical analysis of cell migration are presented in Supplementary Information 12.

WT MDA-MB-231 tumors = experiment: Orthotopic engraftment resect-and-wait model of mammary tumor growth and lung metastasis; format: in vivo, Rag2-/- IL2Rγc-/- mice; conditions: n = 10
Experimental: Cells were washed, counted, and resuspended in PBS to achieve a concentration of 1,000,000 cells in 40 µL and placed on ice and supplemented with Growth Factor Reduced Matrigel (Corning Inc., Corning, NY, USA, catalog number 354,230) in a 10:40 Matrigel/cell suspension ratio. The resulting mixture was maintained on ice until the engraftment. Matrigel was included in the engraftment suspension to promote initial cell retention in the engrafted bolus in the mammary fat pad and to ensure consistent tumor onset. While MDA-MB-231 cells can form tumors without matrix in Rag2^-/- IL2Rγc^-/- mice, the addition of Matrigel could reduce experimental variability and mimic the basement membrane or extracellular matrix components of the tumor microenvironment.
All animal procedures were approved by the university animal care committee in accordance with guidelines from the Canadian Council on Animal Care. […]
The wound clips were removed one week after the engraftment surgery, and the tumor size was measured daily until it reached 600 mm^3. […] When tumors reached the maximum volume (19 to 22 days after the engraftment surgery, determined individually for every mouse), they were resected by recovery surgery, and mice were then monitored for 12 days before being euthanized with CO2 and cervical dislocation and assessed for metastasis. […]

MDA-MB-231 cells = experiment: Single-cell migration on collagen (IncuCyte video microscopy, DiPer MSD analysis), WT cells; format: cell-based, human; conditions: WT + mB27, 4 µM; Std. Error 0.6565; WT + vehicle slope 14.65
Experimental: as §1, §2, §3

Compound: CC[C@H](C)[C@H](NC(=O)[C@H](Cc1ccc(O)cc1)NC(=O)[C@@H](NC(=O)[C@H](CO)NC(=O)[C@H](CO)NC(=O)[C@H](CCSC)NC(=O)[C@H]1CCCN1C(=O)[C@@H](CC(=O)O)NC(=O)c1ccc2c(c1)C(=O)OC21c2ccc(O)cc2Oc2cc(O)ccc21)[C@@H](C)O)C(=O)N[C@@H](CCC(=O)O)C(=O)N[C@@H](CCC(=O)O)C(=O)N[C@@H](CC(C)C)C(=O)NCC(=O)N[C@@H](CCCCN)C(=O)N[C@@H](CCCNC(=N)N)C(=O)N[C@@H](CCC(=O)O)C(=O)N[C@H](C(=O)N[C@H](C(=O)N[C@H](C(=O)N1CCC[C@H]1C(=O)N1CCC[C@H]1C(=O)N[C@@H](CCCCN)C(=O)N[C@@H](Cc1ccc(O)cc1)C(=O)N[C@@H](CCCNC(=N)N)C(=O)N[C@@H](CCC(=O)O)C(=O)N[C@@H](CC(C)C)C(=O)N[C@@H](CC(C)C)C(=O)N[C@@H](C)C(=O)N[C@@H](CCCNC(=N)N)C(=O)N[C@@H](CCCNC(=N)N)C(=O)N[C@@H](CCCNC(=N)N)C(=O)N[C@@H](CCCNC(=N)N)C(=O)N[C@@H](CCCNC(=N)N)C(=O)N[C@@H](CCCNC(=N)N)C(=O)N[C@H](CCCNC(=N)N)C(=O)N[C@H](CCCNC(=N)N)C(=O)N[C@H](CCCNC(=N)N)C(=O)O)[C@@H](C)CC)[C@@H](C)O)C(C)C [mB27] (5FAM-[dD][dP]MSSTYIEELGKREVTIPPKYRELLARRRRRR[dR][dR][dR]-OH; N-terminus and C-terminus assumed)
- Best-fit slope of MSD ([1]; CAPNS1 KO + mB27, 4 µM, Std. Error 0.4558, CAPNS1 KO + vehicle slope 3.642): 3.365
- Effect of peptide on migration of CAPNS1 KO cells (in words) ([1]; CAPNS1 KO MDA-MB-231 cells, 4 µM peptide, ANCOVA p = 0.6134): no effect
- Tumor growth rate (WT MDA-MB-231 tumors; 5 mg/kg/day intraperitoneally for 14 days from 50 mm^3 to 600 mm^3 tumor volume, vehicle 0.431 ± 0.046, p = 0.8554): 0.428 ± 0.024 mm diameter per day
- Lung metastasis (WT MDA-MB-231 tumors; 5 mg/kg/day intraperitoneally for 14 days, tumor resection at 600 mm^3, lungs assessed 12 days later, vehicle 1.12 ± 1.35, p = 0.102 (not significant)): 0.34 ± 0.20 metastases per mm^2
- Best-fit slope of MSD (MDA-MB-231 cells): 7.652

— article PMC12427806, “Calpain-1 and Calpain-2 Promote Breast Cancer Metastasis” (Cells, 2025)
